Test results from EP2351758B1, “METAL COMPLEXES, A METHOD FOR PREPARING SAME, RADIOPHAR[…] BASED THEREON” (Zakrytoe Aktsionernoe Obschestvo "Farm-Sintez", priority 2008, dated 2010).
Like-named read-outs stand apart in the source and are kept apart here.

Columns and labels:
[1] = Pharmacokinetics (distribution in organs and tissues) in female rats with modeled osseous pathology (femur fracture) after intravenous introduction; type: in vivo; conditions: for Blood / Femur, fractured / Femur, normal / Kidneys / Liver / Skeleton / Stomach / Urinary bladder (1, 3 h) / Excretion (5, 24): female rats with modeled osseous pathology, i.v.; for Delayed retention index: ratio of concentration in femur with modeled pathology to healthy femur
Method: (§1) The experiments were run on the intact scrub albino rats with modeled osseous pathology. The osseous pathology was imitated by the femur fracture.
(§2) To prepare the composition, 5.0 ml of the sodium pertechnetate ^99mTc from the technetium generator (FSP 42-0225-4528-03, FSP 42-0018-2694-02) were injected into the lyophilizate vial by puncturing the rubber stopper with a syringe needle; then the vial was agitated and cured 20 minutes. The 0.2 ml volume of the composition was injected into the caudal vein. 1, 3, 5, and 24 hours after injection the animals were devitalized by decapitation; then the samples of blood, liver, kidneys, stomach, right and left femurs, urinary bladder with contents were taken. The radionuclide in organs and tissues was determined by the direct radiometry.
The delayed retention index was determined as the ratio of division of the composition concentration in the femoral bone with the modeled osseous pathology and in the healthy femoral bone.
(§3) The statistical treatment used the Student's method.

[2] = Pharmacokinetics (distribution in organs and tissues) in intact female rats after intravenous introduction; type: in vivo; conditions: for Blood / Femur / Kidneys / Liver / Skeleton / Stomach / Urinary bladder (1, 3 h) / Excretion (5, 24): intact female rats, i.v.
Method: as §1, §2, §3

[3] = 3 hours after administration, cited from earlier work
[4] = intact animals, 3 hours after introduction

For “Technetium-99m in form of complex with zoledronic acid [zoledronic acid, 99mTc]”, the Blood ([1]; 1 h) was 1.7 ± 0.71 % dose/organ, the “Femur, fractured” value ([1]; 1 h) was 4.2 ± 1.04 % dose/organ and the “Femur, normal” value ([1]; 1 h) was 2.1 ± 0.20 % dose/organ. The Kidneys ([1]; 1 h) was 1.8 ± 0.83 % dose/organ, the Liver ([1]; 1 h) was 1.7 ± 0.58 % dose/organ and the Skeleton ([1]; 1 h) was 57.7 ± 5.54 % dose/organ. The Stomach ([1]; 1 h) was 0.4 ± 0.03 % dose/organ, the “Urinary bladder (1, 3 h)” value ([1]; 1 h) was 35.1 ± 10.53 % dose/organ and the Blood ([1]; 3 h) was 2.0 ± 0.81 % dose/organ. The “Femur, fractured” value ([1]; 3 h) was 4.0 ± 1.34 % dose/organ, the “Femur, normal” value ([1]; 3 h) was 1.9 ± 0.42 % dose/organ and the Kidneys ([1]; 3 h) was 1.4 ± 0.68 % dose/organ. For the same substance, the Liver ([1]; 3 h) was 1.1 ± 0.42 % dose/organ, the Skeleton ([1]; 3 h) was 46.6 ± 7.81 % dose/organ and the Stomach ([1]; 3 h) was 0.2 ± 0.09 % dose/organ. The “Urinary bladder (1, 3 h)” value ([1]; 3 h) was 44.8 ± 3.89 % dose/organ, the Blood ([1]; 5 h) was 0.5 ± 0.01 % dose/organ and the “Excretion (5, 24)” value ([1]; 5 h) was 43.4 ± 5.05 % dose/organ. The “Femur, fractured” value ([1]; 5 h) was 3.1 ± 0.70 % dose/organ, the “Femur, normal” value ([1]; 5 h) was 1.9 ± 0.20 % dose/organ and the Kidneys ([1]; 5 h) was 0.9 ± 0.06 % dose/organ. It also gave a Liver ([1]; 5 h) of 1.0 ± 0.05 % dose/organ, a Skeleton ([1]; 5 h) of 49.9 ± 5.44 % dose/organ and a Stomach ([1]; 5 h) of 0.4 ± 0.05 % dose/organ. The Blood ([1]; 24 h) was 0.7 ± 0.01 % dose/organ, the “Excretion (5, 24)” value ([1]; 24 h) was 52.5 ± 10.86 % dose/organ and the “Femur, fractured” value ([1]; 24 h) was 2.5 ± 0.05 % dose/organ. The “Femur, normal” value ([1]; 24 h) was 1.4 ± 0.40 % dose/organ, the Kidneys ([1]; 24 h) was 0.5 ± 0.08 % dose/organ and the Liver ([1]; 24 h) was 0.5 ± 0.09 % dose/organ. For the same substance, the Skeleton ([1]; 24 h) was 38.0 ± 11.02 % dose/organ, the Stomach ([1]; 24 h) was “traces” and the Delayed retention index ([1]; 1 h) was 2.0. For the same substance, the Delayed retention index ([1]; 3 h) was 2.1, the Delayed retention index ([1]; 5 h) was 1.7 and the Delayed retention index ([1]; 24 h) was 1.9. For the same substance, the “retention level in the liver” value ([2]; 3 hours after administration) was 1.0 % of the doze injected, the “skeletal retention of RM” value ([2]; 3 hours after the administration) was 47.3 % of the dose injected and the “activity level in blood” value ([2]; 5 hours after the study start) was “trace”. For the same substance, the excretion [2, 4] was 30%, the “retention in the skeleton” value [2, 4] was 47% and the “injected activity localizes in the skeleton” value ([2]; intact animals, intravenous injection, in one hour) was “up to 48 % of the injected activity”. The “excreted from the organism with the urine” value ([2]; intact animals, intravenous injection, in one hour, 60 min) was 45%, the Blood ([2]; 1 h) was 1.7 ± 0.27 % dose/organ and the Femur ([2]; 1 h) was 1.8 ± 0.16 % dose/organ. It also gave a Kidneys ([2]; 1 h) of 1.3 ± 0.17 % dose/organ, a Liver ([2]; 1 h) of 0.8 ± 0.12 % dose/organ and a Skeleton ([2]; 1 h) of 48.1 ± 4.36 % dose/organ. The Stomach ([2]; 1 h) was 0.1 ± 0.03 % dose/organ, the “Urinary bladder (1, 3 h)” value ([2]; 1 h) was 45.4 ± 4.03 % dose/organ and the Blood ([2]; 3 h) was 0.9 ± 0.38 % dose/organ. For the same substance, the Femur ([2]; 3 h) was 1.9 ± 0.35 % dose/organ, the Kidneys ([2]; 3 h) was 0.9 ± 0.21 % dose/organ and the Liver ([2]; 3 h) was 1.0 ± 0.27 % dose/organ. For the same substance, the Skeleton ([2]; 3 h) was 47.3 ± 2.89 % dose/organ, the Stomach ([2]; 3 h) was 0.1 ± 0.01 % dose/organ and the “Urinary bladder (1, 3 h)” value ([2]; 3 h) was 30.1 ± 4.41 % dose/organ. The Blood ([2]; 5 h) was 0.4 ± 0.03 % dose/organ, the “Excretion (5, 24)” value ([2]; 5 h) was 52.4 ± 2.80 % dose/organ and the Femur ([2]; 5 h) was 1.6 ± 0.11 % dose/organ. The Kidneys ([2]; 5 h) was 1.2 ± 0.13 % dose/organ, the Liver ([2]; 5 h) was 0.6 ± 0.11 % dose/organ and the Skeleton ([2]; 5 h) was 42.9 ± 2.93 % dose/organ. The Stomach ([2]; 5 h) was 0.1 ± 0.04 % dose/organ, the Blood ([2]; 24 h) was “traces” and the “Excretion (5, 24)” value ([2]; 24 h) was 39.1 ± 5.00 % dose/organ. The Femur ([2]; 24 h) was 1.8 ± 0.06 % dose/organ, the Kidneys ([2]; 24 h) was 0.6 ± 0.32 % dose/organ and the Liver ([2]; 24 h) was 0.2 ± 0.13 % dose/organ. The Skeleton ([2]; 24 h) was 49.6 ± 1.77 % dose/organ and the Stomach ([2]; 24 h) was 0.3 ± 0.05 % dose/organ.
In the case of “99Tcm labeled zoledronate (ZL) [known solution (Wang et al)]”, the “skeletal retention of RM” value ([3]; known solution (Wang et al)) is given as 34.2% and the “retention level in the liver” value ([3]; prior metal complex (Wang et al)) is given as 13.4 % of the doze injected.
